Assay results as given in US20230220047A1, “PEPTIDES FOR TREATMENT OF SEPSIS AND CANCER” (NORWEGIAN UNIVERSITY OF SCIENCE AND TECHNOLOGY (NTNU), priority 2020, published 2023).

Legend:
TLR4 [1] = assay: ELISA/Bioplex of LPS-mediated cytokine secretion by THP-1 cells; assay type: cell-based, human; settings: for LPS-mediated secretion of IL-18, IL-6, IL-8 and TNF (27-plex Bioplex): 10 μM
Protocol: (A) Results of LDH assay and ELISAs analysing cytokine secretion after 5 h of stimulation with LPS (graphs show mean values for at least 3 biological replicates). […] In the tables average values are presented based on 3-5 biological replicates for each experiment. […]
TNF in supernatants was detected using a human TNF-alpha DuoSet ELISA (DY210) (R&D Systems); CXCL10 using a DuoSet ELISA (DY266) (R&D Systems); IL-1β using a BD OptEiA human IL-1β ELISA SetII (#557953, BD Biosciences): IFNβ using a VeriKine-HS™ Human Interferon-Beta Serum ELISA Kit (#41415) from PBL Assay Science. Some supernatants were also analysed by multiplex cytokine assay (Bio-Plex; Bio-Rad Laboratories Inc.) for IL-1β, IL-6, IL-8, CXCL10/IP-10. Results are presented as mean and SD for biological replicates for a representative donor (primary human macrophages), or at least three independent experiments for the model cell line THP-1. Statistical significance was evaluated in GraphPad Prizm 5.03. Data distribution was assumed to be normal but this was not formally tested. The difference between the two groups was determined by two-tailed t test.

TLR4 [2] = assay: qPCR of TLR4-mediated cytokine expression in B6 immortalised murine macrophages; assay type: cell-based, mouse; settings: 10 μM, 1 h pre-treatment, LPS 100 ng/ml
Protocol: Cells were pre-treated with 10 μM peptides in cell culture media for 1 h, and stimulated with LPS (100 ng/ml) for increasing lengths of time.
Immortalized bone-derived-macrophages (iBMDM) from wild type, Tram−/− or TIr4−/− C57BL/6 mice were maintained at 37° C. and 5% CO2 in DMEM supplemented with 10% FCS.
Total RNA was isolated from the cells using Qiazol reagent #79306 from QIAGEN, and chloroform extraction followed by purification on RNeasy Mini columns with DNAse digestion (Qiagen). cDNA was prepared using the Maxima First Strand cDNA Synthesis Kit for quantitative real-time polymerase chain reaction (RT-qPCR) (Thermo Fisher Scientific) according to the manufacturer's protocol. qPCR was performed using the PerfeCTa qPCR FastMix (Quanta Biosciences) in replicates and cycled in a StepOnePlus™ Real-Time PCR cycler. The following TaqMan® Gene Expression Assays (Applied Biosystems®) were used: IFNβ (Hs01077958_s1), TNF (Hs00174128_m1), TBP (Hs00427620_m1), CXCL10 (Hs01124251_g1), IL-6 (Hs00174131_m1) and IL-1β (Hs01555410_m1), for human cells; Ifnβ (Mm00439552_s1), Tnf (Mm00443258_m1), Tbp (Mm01277042_m1) and II-1β (Mm00434228_m1), for mouse cells. No RT controls were negative. The level of TBP mRNA was used for normalisation and results presented as relative expression compared to the control untreated sample. Relative expression was calculated using Pfaffl's mathematical model (Pfaffl, Nucleic Acids Research 29(9): e45, 2001). Results are presented as the mean and SD expression fold change for biological replicates relative to non-stimulated cells. Statistical significance was evaluated in GraphPad Prizm 5.03. Data distribution was assumed to be normal but this was not formally tested. The difference between the two groups was determined by two-tailed t test.
We proceeded with cellular assays to address the effect of peptide pre-treatment on TLR4-mediated cytokine expression in B6 immortalised murine macrophages (FIG. 13). Tested peptides had no cytotoxic effect on B6 murine macrophages (FIG. 13A).

Row | Substance | inhibitory activity towards LPS-induced CXCL10, TNF and IL-1β secretion (ELISA) (TLR4 [1]; 15 μM, 30 min pre-treatment, LPS 100 ng/ml 5 h, relative to P7-Pen) | TLR4-mediated Ifnβ, Tnf and Il-1β mRNA expression (TLR4 [2]) | inhibition of CXCL10 secretion (TLR4 [1]; 10 μM applied 30 min before or simultaneously with LPS, LPS 6 h) | inhibitory effect on CXCL10 secretion (TLR4 [1]; 10 μM applied 1 h after addition of LPS) | LPS-mediated secretion of IL-18, IL-6, IL-8 and TNF (27-plex Bioplex) (TLR4 [1]; 30 min pre-treatment) | LPS-mediated TNF secretion (ELISA) (TLR4 [1]; not shown)
1 | Ac-ITVAASVTLTGRQIKIWFQNRRMKWKK-NH2 [Peptide P7-A4-Pen] | least effect on peptide activity | strongly inhibited | – | – | – | –
2 | Ac-ITVYASVTLTGRQIKIWFQNRRMKWKK-NH2 [Peptide P7-Pen] | – | strongly inhibited | very effective | reduced | inhibitory effect | –
3 | Ac-ITVYASVTLTGRRRRRRRRRRR-NH2 [Peptide P7-Arg11] | – | – | – | – | inhibitory effect | prevented TNF secretion
